Series [1] can be described thus: RBC haemolysis induction. Conditions: human, 2% red blood cell suspension.
Description: The whole blood samples were obtained from normal volunteers. Red blood cells were separated by centrifugation and washed 2 times with 0.9% NaCl. Then, 2% RBC suspension was incubated with crude fractional extracts and compounds at 37 °C for 30 min. Triton-X 100 (2%) and NaCl (0.9%) were positive and negative controls, respectively. Then, the supernatant was collected, and haemoglobin concentration was measured by spectrophotometry at 540 nm. The haemolysis induction was calculated using the following equation:5 %Haemolysisinduction=Absorbance of sample/Absorbance of positive contr×100
For series [2], the system named is RAW 264.7 cells. The series can be described thus: RAW 264.7 cell viability by MTT assay. The series is classed as cell-based. The note with it: Mus musculus, RAW264.7, read-out: IC20 values (concentrations at 80% of RAW 264.7 cells). The protocol:
Mouse monocyte macrophage RAW 264.7 cells (American Type Culture Collection, […]-71) were stimulated with lipopolysaccharide (LPS) or phytohemagglutinin (PHA). The LPS treated RAW 264.7 cells served as a vehicle control, of which the NO production, and the secreted cytokines were defined as 100%, whereas a negative control was non-treated RAW 264.7 cells. Dexamethasone (an anti-inflammatory drug) was used as a positive control. RAW 264.7 cell viability was also determined with the assay kit using MTT assay. The supernatant was removed, and MTT was added. After 2 h in a CO2 incubator, the supernatant was removed, and the formazan crystal were dissolved with DMSO. The optical density was measured at 578 nm and corrected with the reference wavelength of 630 nm using a multimode detector (Beckman CoulterDTX880, Fullerton, CA, USA). NO inhibitions were calculated using the following equation: […]

In series [3] the test system is KG-1a cells. The series can be described thus: Cytotoxicity by MTT assay in KG-1a cells. The series is classed as cell-based. The note with it: Homo sapiens, 48 h, read-out: IC50 values (mean ± SD) KG-1a. The protocol: (§1) Leukaemic cell lines including KG-1a (leukaemic stem cell-like cell line with stem cell population), EoL-1 (human […] leukaemic cell line), and K562 (human erythroid leukaemic cell line) were cultured as previously described. The MTT (3-(4,5-dimethylthiazol-2-yl)-2,5-diphenyltetrazolium bromide) assay was used to determine the cytotoxicity of […] extracts and active compounds on leukaemic cells. The method was described previously. K562 (1.0 × 10^5 cells/mL), EoL-1 (3.0 × 10^5 cells/mL), and KG-1a (2.0 × 10^5 cells/mL) were added samples and then incubated for 48 h. The percentage of surviving cells was calculated using the following equation: 1 %Cellviability=Meanabsorbanceintestwell/[…] 50% inhibitory concentration (IC50) was determined as the lowest concentration that inhibited cell growth by 50% compared with the untreated control.
On the technique in general: Tetrazolium assays rely on reduction of a dye to a coloured formazan, in cell work by metabolically active cells.

In series [4] the test system is PBMCs. As to the kind of experiment: Cytotoxicity of PBMCs by MTT assay. The format is cell-based. Conditions: Homo sapiens, PBMC, 48 h, normal PBMCs, read-out: IC50 values (mean ± SD) PBMCs. The method, then:
Method was done as previously described. Briefly, peripheral blood mononuclear cells (PBMCs) were obtained from healthy donors using Ficoll-Hypaque density-gradient centrifugation using Lymphoprep™ solution (Axis-Shield, Oslo, Norway). The PBMCs (1 × 10^6 cells/mL) were cultured in complete RPMI-1640 medium in 96-well plates overnight in a CO2 incubator. […] Then cells were further incubated for 48 h. The survival rate of cells was assessed using the MTT assay.

Series [5] deals with IL-2. The series can be described thus: IL-2 secretion in PHA-stimulated PBMCs (ELISA). The series is classed as cell-based, human. Conditions: sample at IC20 value, vs dexamethasone 1 μg/mL. The source says: Mouse monocyte macrophage RAW 264.7 cells (American Type Culture Collection, […]-71) were stimulated with lipopolysaccharide (LPS) or phytohemagglutinin (PHA). The LPS treated RAW 264.7 cells served as a vehicle control, of which the NO production, and the secreted cytokines were defined as 100%, whereas a negative control was non-treated RAW 264.7 cells. Dexamethasone (an anti-inflammatory drug) was used as a positive control. PBMCs (1 × 10^5 cells/well in RPMI-1640 for IL-2) and Raw cells (1 × 10^5 cells/well in DMEM for TNF-α) were seeded for 24 h in a CO2 incubator set at 37 °C and 5% CO2/95% humidified air. Then cells were treated with […] fractional extracts (IC20 value) or pure compounds (IC20 value), or dexamethasone (1 μg/mL) were added. Following 2-h of incubation in a CO2 incubator, LPS was treated for a final dose of 1 μg/mL under conditions of TNF-α measurement. In contrast, PHA was added to induce inflammation in IL-2 measurement. After 24 h, the media were removed and centrifuged at 13,500 × g for 10 min and 100 μL of the supernatant was analysed by the protocol of R&D Systems, Minneapolis, MN, USA using ELISA technique. The absorbance was measured at 450 nm and corrected with the reference wavelength of 570 nm (Beckman CoulterDTX880, Fullerton, CA, USA). Viability of PBMCs and RAW 264.7 cells was also determined using MTT assay as described previously. IL-2 and TNF-α secretion inhibitions were calculated as bellow:4 %Cytokineinhibition=A-B/A×100 A is the optical density of the mixture without the sample, while B is the optical density of the mixture with the sample. Dexamethasone was a positive control. All experiments were done in triplicate.

Series [6] relates to K562 cells. As to the kind of experiment: Cytotoxicity by MTT assay in K562 cells. The format is cell-based. Conditions: Homo sapiens, 48 h, read-out: IC50 values (mean ± SD) K562. The protocol:
as §1

Series [7] relates to EoL-1 cells. The series can be described thus: Cytotoxicity by MTT assay in EoL-1 cells. The series is classed as cell-based. Conditions: Homo sapiens, EOL1, 48 h, read-out: IC50 values (mean ± SD) EoL-1. The method, then: as §1
Series [8] concerns K562 cells. The series can be described thus: Rate of proliferation, K562 cells. The series is classed as cell-based, human. The note with it: for decrease of rate of proliferation, K562 cells: IC20 value, 24 and 48 h (time-response), vs control; for rate of cell proliferation, K562 cells (in words): concentrations IC10 − IC20 values, 48 h. The protocol: (§2) According to the principle of trypan blue exclusion, viable cells with intact membranes can exclude trypan blue dye, while dead cells with compromised membranes are stained by the trypan blue dye solution. A cell suspension and trypan blue dye solution (0.2%) were mixed, and viable and dead cells were counted under microscope using a hemacytometer. Then, the percentage of viable cells was calculated. KG-1a, EoL-1 and K562 cells were cultured with crude fractional extracts and active pure compounds at various concentrations (10 − 20% growth inhibition; IC10 − IC20 values) of each extract for 48 h, at a 20% growth inhibition (IC20 value) of each extract for 24 and 48 h. Following incubation, cells were harvested, and the total cell number was counted using trypan blue exclusion method. Three independent experiments were plotted as a dose–response curve and compared with the vehicle control. Meanwhile, the total cell number of each cell line after fractional extract and pure compound treatments at 24 and 48 h were calculated and plotted as a time-response curve. Slopes from each graph were considered as the rate of cell proliferation.

The subject of series [9] is EoL-1 cells. As to the kind of experiment: Rate of proliferation, EoL-1 cells. The format is cell-based, human. The note with it: for decrease of rate of proliferation, EoL-1 cells: IC20 value, 24 and 48 h (time-response), vs control; for rate of cell proliferation, EoL-1 cells (in words): concentrations IC10 − IC20 values, 48 h. The protocol: as §2

These results are taken from article PMC10257291, “Biological activities of extracts and compounds from Thai Kae-Lae (Maclura cochinchinensis (Lour.) Corner)” (BMC Complementary Medicine and Therapies, 2023).

Values after ≈ are worked out from the molar mass of the structure shown.

As a reminder, the IC50 is the concentration at which inhibition is half-maximal.

In series [1], `O=c1c(O)c(-c2ccc(O)cc2O)oc2cc(O)cc(O)c12` [Morin, 2’,3,4’,5,7-pentahydroxyflavonone] showed a hemolysis at 30 min, 50 μg/mL of 9.39 ± 1.34%; a hemolysis at 30 min, 100 μg/mL of 9.82 ± 1.09%; a hemolysis at 30 min, 150 μg/mL of 10.2 ± 1%. Besides, the IC20 in [2] stood at 62.4 ± 7.44 µg/mL (≈ 206 µM). Besides, the IC50 in series [3] is > 100 µg/mL. In addition, the IC50 in series [4] is > 100 µg/mL. The IL-2 inhibition result in series [5] is on record as “suppressed IL-2 significantly better than dexamethasone”. For the same compound, in series [6], the half-inhibitory concentration (IC50) is > 100 µg/mL. For the same compound, the IC50 in series [7] was found to be 18.4 ± 1.6 µg/mL (≈ 60.7 µM). Also, in series [8], the “decrease of rate of proliferation, K562 cells” value (from here on “decrease of rate … K562 cells”) is “decrease the proliferation rate”; the “rate of cell proliferation, K562 cells (in words)” value (from here on “rate … K562 cells (in words)”) is “significant difference at concentrations of 70, 80, and 90 µg/mL”. In series [9], the “decrease of rate of proliferation, EoL-1 cells” value (shortened to “decrease of rate … EoL-1 cells”) was “decrease the proliferation rate”.

With `O=c1c(O)c(-c2ccc(O)c(O)c2)oc2cc(O)cc(O)c12` [Quercetin, quercetin], in series [1], the hemolysis at 30 min, 10 μg/mL amounted to 8.51 ± 0.86%; the hemolysis at 30 min, 50 μg/mL turned out to be 8.85 ± 0.21%; the hemolysis at 30 min, 100 μg/mL came out at 8.74 ± 0.26%. Also, the IC20 in series [2] amounted to 35.5 ± 6.49 µg/mL (≈ 118 µM). For the same compound, in [3], the IC50 amounted to 72.6 ± 7.45 µg/mL (≈ 240 µM). In addition, in series [4], the IC50 is > 100 µg/mL. The IL-2 inhibition result in [5] is given as “suppressed IL-2 significantly better than dexamethasone”. Further, the IC50 in series [6] is > 100 µg/mL. Besides, in series [7], the IC50 worked out at 5.89 ± 0.46 µg/mL (≈ 19.5 µM). In addition, in series [8], the “decrease of rate … K562 cells” value is reported as “significantly decreasing rates of proliferation” and the “rate … K562 cells (in words)” value is on record as “significantly decreasing rate of cell proliferation”. In series [9], the “decrease of rate … EoL-1 cells” value was “significantly decreasing rates of proliferation” and the “rate of cell proliferation, EoL-1 cells (in words)” value is “significantly decreasing rate of cell proliferation”.

Turning to `Oc1ccc(/C=C/c2cc(O)cc(O)c2)cc1` [Resveratrol, resveratrol], in series [1], the hemolysis at 30 min, 10 μg/mL came to 8.96 ± 1.83%; the hemolysis at 30 min, 20 μg/mL came to 8.58 ± 0.67%; the hemolysis at 30 min, 40 μg/mL came to 8.95 ± 0.21%. The IC20 in series [2] is 3.4 ± 0.2 µg/mL (≈ 14.9 µM). Further, the IC50 in [3] turned out to be 20.7 ± 2.65 µg/mL (≈ 90.7 µM). Also, the concentration for half-maximal inhibition (IC50) in series [4] was determined as 44 ± 9.7 µg/mL (≈ 193 µM). In series [5], the IL-2 inhibition entry is given as “suppressed IL-2 significantly better than dexamethasone”. Also, the concentration for half-maximal inhibition (IC50) in series [6] amounted to 41.6 ± 1.92 µg/mL (≈ 182 µM). The IC50 in series [7] amounted to 5.49 ± 0.29 µg/mL (≈ 24.1 µM). In series [8], the “decrease of rate … K562 cells” value was determined as 93.20% and the “rate … K562 cells (in words)” value is on record as “significantly decreasing rate of cell proliferation”. For the same compound, in series [9], the “decrease of rate … EoL-1 cells” value turned out to be 95.45% and the “rate of cell proliferation, EoL-1 cells (in words)” value is reported as “significantly decreasing rate of cell proliferation”.
